# Source: article PMC8022280 (ChemMedChem, 2018)
# Key:
# Wip1 [1] = target: T1, Wip1 (Homo sapiens, UniProt O15297); assay: Inhibition of Wip1 phosphatase activity toward the ATM; type: biochemical
# T1 sequence (O15297 1-605): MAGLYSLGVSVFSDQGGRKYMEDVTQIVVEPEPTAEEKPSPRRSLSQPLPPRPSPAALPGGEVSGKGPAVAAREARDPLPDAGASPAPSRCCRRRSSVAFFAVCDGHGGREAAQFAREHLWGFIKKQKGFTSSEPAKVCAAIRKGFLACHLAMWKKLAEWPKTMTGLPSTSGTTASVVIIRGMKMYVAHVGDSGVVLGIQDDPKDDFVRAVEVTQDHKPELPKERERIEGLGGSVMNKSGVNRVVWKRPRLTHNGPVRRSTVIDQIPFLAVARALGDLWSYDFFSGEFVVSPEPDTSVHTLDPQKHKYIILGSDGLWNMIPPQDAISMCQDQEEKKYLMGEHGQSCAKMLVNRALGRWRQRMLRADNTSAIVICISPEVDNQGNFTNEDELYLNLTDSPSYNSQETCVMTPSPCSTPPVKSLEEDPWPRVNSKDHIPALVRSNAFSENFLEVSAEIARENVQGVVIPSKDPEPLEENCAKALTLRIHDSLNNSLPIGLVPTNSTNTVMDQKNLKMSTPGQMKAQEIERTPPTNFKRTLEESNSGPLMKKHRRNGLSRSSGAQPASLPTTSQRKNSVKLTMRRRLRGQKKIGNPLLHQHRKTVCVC
# Wip1 [2] = target: T1, Wip1; assay: Quantitative ELISA of γH2AX levels in MCF7 cells; type: cell-based; settings: no IR (Figure S2)
IC50 (Wip1 [1]),increase in γH2AX levels in the absence of exposure to IR (Wip1 [2]),Structure (SMILES)
920 nM,did not produce a detectable increase,"COC(=O)[C@H](CCCCNC(=O)[C@H](CC1CCCCC1)NC(=O)c1cccs1)NC(=O)c1cccc(O)c1 [Compound 1, Methyl-N^6-((S)-3-cyclohexyl-2-(thiophene-2-carboxamido)propanoyl)-N^2-(3-hydroxybenzoyl)-L-lysinate]"
–,did not produce a detectable increase,"Cc1ncc(Cl)cc1NCc1ccc(C(=O)N[C@@H](CC2CCCC2)C(=O)NC2CC2)s1 [GSK2830371, reference compound]"
